# Measured values taken from article PMC4147587, “Synthesis and Analgesic Effects of μ-TRTX-Hhn1b on Models of Inflammatory and Neuropathic Pain” (Toxins, 2014).
# “Also recorded” adds a separate entry of the source.
# Biological target: T1, human Nav1.7 (Homo sapiens, UniProt Q15858)
# T1 construct: expressed in transfected cells; host or cells: HEK293 cells, transient transfection with Lipofectamine 2000
# Assay: whole-cell patch clamp, human Nav1.7 transiently expressed in HEK 293 cells
# Type: cell-based
# Description: Figure 2 Inhibitory effect of synthetic μ-TRTX-Hhn1b on Nav1.7 expressed on HEK 293 cells. […] (B) The inhibition of μ-TRTX-Hhn1b on Nav1.7 was dose-dependent. […] Data are plotted as a fraction of the maximum conductance. The voltage-dependence of steady-state inactivation was estimated using a standard double-pulse protocol, in which a 20-ms depolarizing test potential of 0 mV followed a 500-ms prepulse at potentials that ranged from −130 to −10 mV with a 10-mV increment. Cells were held at −100 mV.
# A human Nav1.7 channel plasmid (accession No. NM_002977) and a plasmid for green ﬂuorescent protein were transiently transfected into human embryonic kidney 293 (HEK293) cells using Lipofectamine 2000 (Invitrogen, Carlsbad, CA, USA) according to the manufacturer’s instructions. HEK293 cells were grown under standard tissue culture conditions (5% CO2; 37 °C) in DMEM supplemented with 10% FBS. The β1 subunit was cotransfected with the Nav1.7 channel to increase the current density. Cells with green ﬂuorescence were selected for whole-cell patch-clamp recording at 36–72 h after transfection. Patch-clamp experiments were performed at room temperature. Suction pipettes (2.0–3.0 MΩ) were made from borosilicate glass capillary tubes using a two-step vertical micropipette puller. The pipette solution contained (in mM): CsCl 145, MgCl2∙6H2O 4, HEPES 10, EGTA 10, glucose 10, ATP 2 (pH 7.2). The external solution contained (in mM): NaCl 145, KCl 2.5, CaCl2 1.5, MgCl2.6H2O 1.2, HEPES 10, glucose 10 (pH 7.4). Experimental data were collected and analyzed using the program Pulse/Pulsefit 8.0 (HEKA Electronics, Pfalz, Germany). Macroscopic sodium currents were filtered at 5 kHz and digitized at 20 kHz with an EPC-9 patch-clamp amplifier (HEKA Electronics, Pfalz, Germany). Series resistance was kept near 5 MΩ and compensated to 65%–70%; linear capacitative and leakage currents were digitally subtracted using the P/4 protocol.
# T1 sequence (Q15858 other isoform, or with tags, fused parts or gaps): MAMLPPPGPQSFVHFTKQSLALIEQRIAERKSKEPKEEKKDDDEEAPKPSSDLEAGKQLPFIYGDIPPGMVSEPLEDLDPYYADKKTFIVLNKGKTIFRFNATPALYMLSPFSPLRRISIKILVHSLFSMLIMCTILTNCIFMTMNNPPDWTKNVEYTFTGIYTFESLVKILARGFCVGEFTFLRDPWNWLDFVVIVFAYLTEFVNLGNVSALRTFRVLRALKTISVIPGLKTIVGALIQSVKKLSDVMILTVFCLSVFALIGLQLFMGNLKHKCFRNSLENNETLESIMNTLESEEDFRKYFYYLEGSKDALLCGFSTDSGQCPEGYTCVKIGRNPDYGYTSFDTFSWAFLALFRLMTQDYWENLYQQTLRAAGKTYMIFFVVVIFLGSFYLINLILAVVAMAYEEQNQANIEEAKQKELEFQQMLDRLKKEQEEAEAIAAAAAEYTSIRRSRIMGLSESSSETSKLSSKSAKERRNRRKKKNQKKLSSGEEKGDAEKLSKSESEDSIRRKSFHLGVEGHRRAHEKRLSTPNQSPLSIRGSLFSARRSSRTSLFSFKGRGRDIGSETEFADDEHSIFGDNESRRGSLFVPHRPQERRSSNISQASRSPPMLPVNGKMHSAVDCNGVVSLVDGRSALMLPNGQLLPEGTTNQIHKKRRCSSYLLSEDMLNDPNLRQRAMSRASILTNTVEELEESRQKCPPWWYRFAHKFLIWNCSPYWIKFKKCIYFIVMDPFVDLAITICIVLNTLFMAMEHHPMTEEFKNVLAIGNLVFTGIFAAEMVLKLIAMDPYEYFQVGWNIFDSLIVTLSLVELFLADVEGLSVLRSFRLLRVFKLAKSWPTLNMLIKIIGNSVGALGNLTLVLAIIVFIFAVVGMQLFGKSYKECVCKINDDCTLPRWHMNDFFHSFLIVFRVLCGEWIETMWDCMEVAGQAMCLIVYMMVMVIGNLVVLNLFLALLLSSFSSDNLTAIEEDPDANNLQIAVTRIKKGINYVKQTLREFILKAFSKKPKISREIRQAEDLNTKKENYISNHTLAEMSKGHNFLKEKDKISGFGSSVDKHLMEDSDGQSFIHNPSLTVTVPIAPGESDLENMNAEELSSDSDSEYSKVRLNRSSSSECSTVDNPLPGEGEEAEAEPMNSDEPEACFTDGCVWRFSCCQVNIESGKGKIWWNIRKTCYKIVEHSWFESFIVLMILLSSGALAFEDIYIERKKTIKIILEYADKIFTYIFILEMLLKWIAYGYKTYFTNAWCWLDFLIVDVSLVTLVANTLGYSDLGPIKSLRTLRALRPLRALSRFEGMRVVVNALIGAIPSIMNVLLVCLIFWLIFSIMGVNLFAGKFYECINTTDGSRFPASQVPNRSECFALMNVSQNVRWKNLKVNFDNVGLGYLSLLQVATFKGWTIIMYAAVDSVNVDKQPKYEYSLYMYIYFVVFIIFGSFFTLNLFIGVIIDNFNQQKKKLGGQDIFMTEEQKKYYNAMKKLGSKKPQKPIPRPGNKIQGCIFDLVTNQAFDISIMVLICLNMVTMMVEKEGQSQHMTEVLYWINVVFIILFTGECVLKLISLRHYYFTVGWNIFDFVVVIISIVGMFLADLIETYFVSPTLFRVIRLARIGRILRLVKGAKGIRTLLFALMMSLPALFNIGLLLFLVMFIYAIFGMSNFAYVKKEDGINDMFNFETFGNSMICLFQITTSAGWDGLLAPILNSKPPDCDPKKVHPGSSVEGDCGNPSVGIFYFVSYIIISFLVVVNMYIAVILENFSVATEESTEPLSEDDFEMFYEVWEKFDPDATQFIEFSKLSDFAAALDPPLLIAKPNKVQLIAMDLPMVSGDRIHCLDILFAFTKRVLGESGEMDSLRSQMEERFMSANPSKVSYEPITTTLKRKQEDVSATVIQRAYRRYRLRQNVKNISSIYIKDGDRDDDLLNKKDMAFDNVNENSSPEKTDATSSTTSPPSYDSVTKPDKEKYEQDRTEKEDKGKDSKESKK
# T1 sequence (Q07699 19-218, further chain): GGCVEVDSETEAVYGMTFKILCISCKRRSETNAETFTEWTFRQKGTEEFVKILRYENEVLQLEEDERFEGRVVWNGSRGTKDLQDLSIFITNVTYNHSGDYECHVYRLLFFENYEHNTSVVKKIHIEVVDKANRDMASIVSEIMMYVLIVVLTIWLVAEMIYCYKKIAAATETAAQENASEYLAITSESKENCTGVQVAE
structure (smiles),measurement,setting,value
CC[C@H](C)[C@H](NC(=O)[C@H](CCC(=O)O)NC(=O)[C@H](Cc1ccc(O)cc1)NC(=O)[C@H](CCCCN)NC(=O)[C@@H]1CSSC[C@@H]2NC(=O)[C@H](CCC(N)=O)NC(=O)[C@H](CC(=O)O)NC(=O)[C@H](CC(N)=O)NC(=O)[C@H](CO)NC(=O)[C@@H]3CCCN3C(=O)[C@H](CC(N)=O)NC(=O)[C@@H]3CSSC[C@H](NC(=O)[C@H](C(C)C)NC(=O)[C@H](CC(C)C)NC(=O)[C@H](CC(N)=O)NC(=O)[C@H](CO)NC(=O)[C@H](CO)NC(=O)[C@H](CCCCN)NC(=O)[C@H](CSSC[C@H](NC(=O)[C@@H](N)CCC(=O)O)C(=O)N[C@@H](CC(C)C)C(=O)NCC(=O)N[C@@H](Cc4ccccc4)C(=O)NCC(=O)N[C@@H](CCCCN)C(=O)NCC(=O)N3)NC2=O)C(=O)N[C@@H](CO)C(=O)N[C@@H](CCCNC(=N)N)C(=O)N[C@@H](CCCCN)C(=O)N[C@@H](Cc2c[nH]cn2)C(=O)N[C@@H](CCCNC(=N)N)C(=O)N[C@@H](Cc2c[nH]c3ccccc23)C(=O)N1)C(N)=O [μ-TRTX-Hhn1b],effect on activation and inactivation of Nav1.7,50 nM synthetic peptide,did not significantly alter the activation (C) and steady-state inactivation (D) of Nav1.7; also recorded: inhibited the peak current of Nav1.7 without significant alteration of the activation and inactivation kinetics of Nav1.7
same,half-activation voltage of Nav1.7,"50 nM synthetic peptide, Boltzmann fit",−23.0 ± 0.4 mV
same,half-inactivation voltage of Nav1.7,"50 nM synthetic peptide, steady-state inactivation, Boltzmann fit",−47.1 ± 0.3 mV
same,"τon, time-dependent inhibition of Nav1.7","100 nM synthetic peptide, HEK 293 cells",20.5 ± 0.3 s
same,inhibitory effect of synthetic peptide compared with native toxin,human Nav1.7 in HEK 293 cells,same inhibitory effect on human Nav1.7 current transiently expressed in HEK 293 cells as the native toxin
same,IC50,"synthetic peptide, human Nav1.7 + β1 subunit in HEK 293 cells, whole-cell patch clamp, room temperature, 50-ms depolarization from −80 mV to −10 mV, mean ± S.E., five to eight cells, read-out: IC50, inhibition of Nav1.7 current",~0.021 µM
